# Active and inactive are the calls of the source. The rule behind the calls is not given here.
# Test system: D-423MG
# Test: Cytotoxicity against human D423 cells with CES2 deficient
# Format: functional, cell-based
# Settings: not given
row,Compound,Activity
1,CC(C)(C)C(=O)OCOP(=O)(NCC1CC1)C1CCCN(O)C1=O (configuration not stated),Active

# Test system: D-423MG
# Test: Cytotoxicity against human D423 cells with HINT1 deficient
# Format: functional, cell-based
# Settings: not given
row,Compound,Activity
1,CC(C)(C)C(=O)OCOP(=O)(NCC1CC1)C1CCCN(O)C1=O (configuration not stated),Active

# Test system: D-423MG
# Test: Cytotoxicity against human D423 cells with PAPSS1 deficient
# Format: functional, cell-based
# Settings: not given
row,Compound,Activity
1,CC(C)(C)C(=O)OCOP(=O)(NCC1CC1)C1CCCN(O)C1=O (configuration not stated),Active

# Test system: D-423MG
# Test: Cytotoxicity against human D423 cells with ENO1 deficient assessed as reduction in cell viability incubated for 5 days by crystal violet staining based spectrophotometry
# Format: functional
# Settings: 120 h
row,Compound,IC50
1,CC(C)(C)C(=O)OCOP(=O)(NC1CCC1)C1CCCN(O)C1=O (configuration not stated),121 nM
2,CCCCCCCCCCCCNP(=O)(O)C1CCCN(O)C1=O (configuration not stated),24 nM
3,CC(C)(C)C(=O)OCOP(N)(=O)C1CCCN(O)C1=O (configuration not stated),62.6 nM
4,CC(C)OC(=O)C(C)NP(=O)(OCOC(=O)C(C)(C)C)C1CCCN(O)C1=O (configuration not stated),258 nM
5,CC(C)(C)C(=O)OCOP(=O)(NCc1ccc(F)cc1)C1CCCN(O)C1=O (configuration not stated),129 nM
6,CNP(=O)(OCOC(=O)C(C)(C)C)C1CCCN(O)C1=O (configuration not stated),115 nM
7,CC(C)(C)C(=O)OCOP(=O)(OCOC(=O)C(C)(C)C)C1CCCN(O)C1=O (configuration not stated),17.3 nM
8,CC(C)(C)C(=O)OCOP(=O)(NCc1cccc(F)c1)C1CCCN(O)C1=O (configuration not stated),103 nM
9,CC(C)(C)C(=O)OCOP(=O)(NCc1ccccc1)C1CCCN(O)C1=O (configuration not stated),244 nM
10,CC(C)(C)C(=O)OCOP(=O)(NCc1ccccc1F)C1CCCN(O)C1=O (configuration not stated),196 nM
11,O=C1C(P(=O)(O)NCC2CC2)CCCN1O (configuration not stated),8830 nM
12,CC(C)(C)C(=O)OCOP(=O)(NCc1ccc(F)cc1F)C1CCCN(O)C1=O (configuration not stated),80.3 nM
13,CC(C)(C)C(=O)OCOP(=O)(NCC1CCCCC1)C1CCCN(O)C1=O (configuration not stated),81.1 nM
14,CC(C)(C)C(=O)OCOP(=O)(NCc1ccc(F)c(F)c1)C1CCCN(O)C1=O (configuration not stated),84.6 nM

# From ChEMBL document CHEMBL4699608, “Aliphatic amines are viable pro-drug moieties in phosphonoamidate drugs” (Bioorg Med Chem Lett, 2020)
